We go through six compounds from patent US20240270762A1, “PENICILLIN-BINDING PROTEIN INHIBITORS” (priority 2021, published 2024).

One experiment has as its system N. gonorrhoeae CDC-0197. Briefly: Liquid broth MIC in Fastidious broth. The note with it: Neisseria gonorrhoeae.
The next experiment deals with A. baumannii CDC-0033. Briefly: microbe, parasite or virus in culture. To be noted: Acinetobacter baumannii, CDC0033, read-out: MIC, A. baumannii CDC-0033. In kind it is cell-based.
In a further experiment the test system is A. baumannii 1258916. Briefly: microbe, parasite or virus in culture. In kind it is cell-based, Acinetobacter baumannii. The note with it: Acinetobacter baumannii, 1258916, read-out: MIC, A. baumannii 1258916.
Experiment [1] deals with T1, PBP1a from Acinetobacter baumannii (ATCC 19606) (Acinetobacter baumannii, UniProt A0ABX6CK30).
T1 sequence (A0ABX6CK30 1-851): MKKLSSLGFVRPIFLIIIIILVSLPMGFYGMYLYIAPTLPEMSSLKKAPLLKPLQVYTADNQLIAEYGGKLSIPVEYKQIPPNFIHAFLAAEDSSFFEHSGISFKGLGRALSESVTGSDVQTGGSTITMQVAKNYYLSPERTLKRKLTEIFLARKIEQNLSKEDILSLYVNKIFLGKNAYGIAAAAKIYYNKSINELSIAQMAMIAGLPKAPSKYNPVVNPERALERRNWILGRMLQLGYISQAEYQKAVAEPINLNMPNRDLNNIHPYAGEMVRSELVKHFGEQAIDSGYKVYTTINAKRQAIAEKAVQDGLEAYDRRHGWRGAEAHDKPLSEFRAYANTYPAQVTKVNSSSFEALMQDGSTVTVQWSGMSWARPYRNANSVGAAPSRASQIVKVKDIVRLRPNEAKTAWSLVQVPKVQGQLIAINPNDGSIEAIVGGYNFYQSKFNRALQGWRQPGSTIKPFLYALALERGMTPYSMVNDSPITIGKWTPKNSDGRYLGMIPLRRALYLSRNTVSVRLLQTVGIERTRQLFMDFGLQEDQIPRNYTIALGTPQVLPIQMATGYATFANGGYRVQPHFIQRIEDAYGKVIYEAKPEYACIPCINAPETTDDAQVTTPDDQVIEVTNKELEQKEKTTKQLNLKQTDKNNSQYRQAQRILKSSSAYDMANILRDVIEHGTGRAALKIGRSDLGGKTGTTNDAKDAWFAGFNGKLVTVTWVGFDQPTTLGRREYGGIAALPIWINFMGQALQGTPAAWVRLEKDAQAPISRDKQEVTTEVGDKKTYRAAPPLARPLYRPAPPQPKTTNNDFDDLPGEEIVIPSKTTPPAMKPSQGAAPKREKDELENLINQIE
The experiment can be described thus: Bocillin-FL fluorescence polarization competition binding, A. baumannii PBP1a. The note with it: fluorescence polarization competition binding assay using Bocillin-FL; read-out: A. baumannii PBP1a Potency. The essentials: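 Purified PBP was preincubated with inhibitor (E. coli PBP3 1.5 μM, 30 min; P. aeruginosa PBP3 0.75 μM, A. baumannii PBP3 0.2 μM and PBP1a 1 μM, 15 min), then Bocillin-FL (0.1 μM; 0.05 μM for PBP1a) added and FP read up to 60 min. EC50 = 50% loss of bound probe.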
A general note: In fluorescence polarisation assays a small probe gives low polarisation when free and higher when bound to something large.

Another experiment concerns N. gonorrhoeae WHO X. Briefly: Liquid broth MIC in Fastidious broth. To be noted: Neisseria gonorrhoeae.
A further experiment concerns A. baumannii CDC-0083. The experiment can be described thus: microbe, parasite or virus in culture. Type of experiment: cell-based. To be noted: Acinetobacter baumannii, CDC0083, read-out: MIC, A. baumannii CDC-0083.
The next experiment deals with N. gonorrhoeae WHO M. Briefly: Liquid broth MIC in Fastidious broth. To be noted: Neisseria gonorrhoeae.
The subject of a further experiment is A. baumannii ATCC 19606. Briefly: microbe, parasite or virus in culture. Type of experiment: cell-based. The note with it: Acinetobacter baumannii, ATCC19606, read-out: MIC, A. baumannii ATCC 19606.
Setting [2] is: CDC0197, read-out: Minimum Inhibitory Concentration (MIC), N. gonorrhoeae CDC-0197.
Setting [3] is: read-out: Minimum Inhibitory Concentration (MIC), N. gonorrhoeae WHO X.
[4] abbreviates: read-out: Minimum Inhibitory Concentration (MIC), N. gonorrhoeae WHO M.

Each structure is given as a SMILES string. Values after ≈ are worked out from the molar mass of the structure shown. Where two headings read alike, the source gives them in different places.

Experimental for N. gonorrhoeae WHO M: Liquid broth-based assays were used for antibacterial testing of PBP inhibitors in Neisseria gonorrhoeae. Briefly, cryo-preserved bacterial cultures of clinical strains were streaked for isolation on Chocolate Agar (72 g/L (2×) GC Agar Base (BD #228950) and 2% (2×) Hemoglobin was autoclaved at 121° C. for 20 minutes to sterilize. Once cooled to ˜50° C. the 2×GC Agar Base and 2× Hemoglobin solutions are combined and 1% IsoVitaleX Enrichment (BD #211876) was added to the solution). Strains were incubated at 36° C. and 5% CO2 to allow growth of colonies, 24 hours before inoculum preparation. 2-fold serial dilutions of test compounds were conducted in a 96 well plate with a final volume of 75 μL per well at 2-fold the final desired concentration in Fastidious broth (Remel #R07664). For preparation of assay inoculum, a direct suspension was prepared by aseptically swabbing 10-15 colonies from agar plates into culture tubes containing 2 mL of fresh sterile saline. After the dilution plates were set up, direct suspensions were then diluted in a cuvette containing sterile saline and the optical density was measured at 600 nm. Inocula were diluted such that 75 μL of this culture in Fastidious broth results in a starting bacterial concentration of 5×10^5 CFU/mL when added to the dilution plates. The plates were incubated for ˜24 hours at 36° C. and 5% CO2.

As to `O=C(NCCN1CCN(C(=O)NC(C(=O)N[C@H]2Cc3ccc(F)c(C(=O)O)c3OB2O)c2cc(F)c(O)c(O)c2Cl)C1=O)c1ccc(O)cc1` (stereo partly drawn) [Example 243, (3R)-3-(2-(2-chloro-5-fluoro-3,4-dihydroxyphenyl)-2-(3-(2-(4-hydroxybenzamido)ethyl)-2-oxoimidazolidine-1-carboxamido)acetamido)-7-fluoro-2-hydroxy-3,4-dihydro-2H-benzo[e][1,2]oxaborinine-8-carboxylic acid], the MIC with N. gonorrhoeae CDC-0197 (setting [2]) was 16 to 32 µg/mL (≈ 22.3 to 44.6 µM); in the experiment with A. baumannii CDC-0033, 2 to 4 µg/mL (≈ 2.79 to 5.57 µM); in the experiment on A. baumannii 1258916, under 1 µg/mL; in the experiment with N. gonorrhoeae WHO X (setting [3]), over 64 µg/mL; in the experiment on A. baumannii CDC-0083 it was under 1 µg/mL; with N. gonorrhoeae WHO M (setting [4]), 4 to 8 µg/mL (≈ 5.57 to 11.1 µM). In the experiment with A. baumannii ATCC 19606, the MIC is under 1 µg/mL. For the same compound, the IC50 in experiment [1] was over 250 µM.
Take `O=C(CN1CCN(C(=O)N[C@@H](C(=O)N[C@H]2Cc3ccc(F)c(C(=O)O)c3OB2O)c2cc(F)c(O)c(O)c2Cl)C(=O)C1=O)NCc1nccs1` [Example 241, (R)-3-((R)-2-(2-chloro-5-fluoro-3,4-dihydroxyphenyl)-2-(2,3-dioxo-4-(2-oxo-2-((thiazol-2-ylmethyl)amino)ethyl)piperazine-1-carboxamido)acetamido)-7-fluoro-2-hydroxy-3,4-dihydro-2H-benzo[e][1,2]oxaborinine-8-carboxylic acid]: the MIC in the experiment on N. gonorrhoeae CDC-0197 (setting [2]) was 16 to 32 µg/mL (≈ 21.7 to 43.4 µM); in the experiment with A. baumannii CDC-0033, 8 to 16 µg/mL (≈ 10.9 to 21.7 µM); in the experiment on A. baumannii 1258916, under 1 µg/mL; with N. gonorrhoeae WHO X (setting [3]), over 64 µg/mL; in the experiment with A. baumannii CDC-0083, over 128 µg/mL; in the experiment with N. gonorrhoeae WHO M (setting [4]) it was 4 to 8 µg/mL (≈ 5.43 to 10.9 µM). The MIC in the experiment with A. baumannii ATCC 19606 is under 1 µg/mL. Further, the IC50 in experiment [1] is over 250 µM.
For `O=C(NCCCS(=O)(=O)N1CCN(C(=O)NC(C(=O)N[C@H]2Cc3ccc(F)c(C(=O)O)c3OB2O)c2cc(F)c(O)c(O)c2Cl)C1=O)c1nccs1` (stereo partly drawn) [Example 274, (3R)-3-(2-(2-chloro-5-fluoro-3,4-dihydroxyphenyl)-2-(2-oxo-3-((3-(thiazole-2-carboxamido)propyl)sulfonyl)imidazolidine-1-carboxamido)acetamido)-7-fluoro-2-hydroxy-3,4-dihydro-2H-benzo[e][1,2]oxaborinine-8-carboxylic acid], the MIC is 16 to 32 µg/mL (≈ 20.3 to 40.7 µM) with N. gonorrhoeae CDC-0197 (CDC0197, read-out: Minimum Inhibitory Concentration, CDC-0197); 8 to 16 µg/mL (≈ 10.2 to 20.3 µM) with A. baumannii CDC-0033; under 1 µg/mL in the experiment with A. baumannii 1258916; over 64 µg/mL in the experiment on N. gonorrhoeae WHO X (read-out: Minimum Inhibitory Concentration, WHO X); under 1 µg/mL with A. baumannii CDC-0083; 16 to 32 µg/mL (≈ 20.3 to 40.7 µM) in the experiment with N. gonorrhoeae WHO M (read-out: Minimum Inhibitory Concentration, WHO M). Moreover, the MIC in the experiment with A. baumannii ATCC 19606 was under 1 µg/mL. Moreover, the IC50 in experiment [1] was over 250 µM.
Consider `CN(CCN1CCN(C(=O)NC(C(=O)N[C@H]2Cc3ccc(F)c(C(=O)O)c3OB2O)c2cc(F)c(O)c(O)c2Cl)C(=O)C1=O)S(=O)(=O)c1cccc(C(N)=O)c1` (stereo partly drawn) [Example 224, (3R)-3-(2-(4-(2-((3-carbamoyl-N-methylphenyl)sulfonamido)ethyl)-2,3-dioxopiperazine-1-carboxamido)-2-(2-chloro-5-fluoro-3,4-dihydroxyphenyl)acetamido)-7-fluoro-2-hydroxy-3,4-dihydro-2H-benzo[e][1,2]oxaborinine-8-carboxylic acid], for which the MIC was over 64 µg/mL in the experiment with N. gonorrhoeae CDC-0197 (setting [2]); 8 to 16 µg/mL (≈ 9.72 to 19.4 µM) in the experiment with A. baumannii CDC-0033; 2 to 4 µg/mL (≈ 2.43 to 4.86 µM) in the experiment with A. baumannii 1258916; over 64 µg/mL with N. gonorrhoeae WHO X (setting [3]); 2 to 4 µg/mL (≈ 2.43 to 4.86 µM) in the experiment on A. baumannii CDC-0083; 16 to 32 µg/mL (≈ 19.4 to 38.9 µM) in the experiment with N. gonorrhoeae WHO M (setting [4]). The MIC in the experiment with A. baumannii ATCC 19606 is under 1 µg/mL. Besides, the IC50 in experiment [1] is over 250 µM.
Consider `O=C(CN1CCN(C(=O)NC(C(=O)N[C@H]2Cc3ccc(F)c(C(=O)O)c3OB2O)c2cc(F)c(O)c(O)c2Cl)C(=O)C1=O)NCc1cccnc1` (stereo partly drawn) [Example 240, (3R)-3-(2-(2-chloro-5-fluoro-3,4-dihydroxyphenyl)-2-(2,3-dioxo-4-(2-oxo-2-((pyridin-3-ylmethyl)amino)ethyl)piperazine-1-carboxamido)acetamido)-7-fluoro-2-hydroxy-3,4-dihydro-2H-benzo[e][1,2]oxaborinine-8-carboxylic acid], for which the MIC was 16 to 32 µg/mL (≈ 21.9 to 43.8 µM) in the experiment with N. gonorrhoeae CDC-0197 (setting [2]); 2 to 4 µg/mL (≈ 2.74 to 5.47 µM) in the experiment on A. baumannii CDC-0033; under 1 µg/mL in the experiment with A. baumannii 1258916; over 64 µg/mL in the experiment on N. gonorrhoeae WHO X (setting [3]); over 128 µg/mL in the experiment with A. baumannii CDC-0083; 4 to 8 µg/mL (≈ 5.47 to 10.9 µM) in the experiment with N. gonorrhoeae WHO M (setting [4]). The MIC with A. baumannii ATCC 19606 was under 1 µg/mL. In addition, the IC50 in experiment [1] was over 250 µM.
As to `O=C(NCCN1CCN(C(=O)NC(C(=O)N[C@H]2Cc3ccc(F)c(C(=O)O)c3OB2O)c2cc(F)c(O)c(O)c2Cl)C(=O)C1=O)c1nccs1` (stereo partly drawn) [Example 218, (3R)-3-(2-(2-chloro-5-fluoro-3,4-dihydroxyphenyl)-2-(2,3-dioxo-4-(2-(thiazole-2-carboxamido)ethyl)piperazine-1-carboxamido)acetamido)-7-fluoro-2-hydroxy-3,4-dihydro-2H-benzo[e][1,2]oxaborinine-8-carboxylic acid], the MIC is 16 to 32 µg/mL (≈ 21.7 to 43.4 µM) in the experiment with N. gonorrhoeae CDC-0197 (setting [2]); 8 to 16 µg/mL (≈ 10.9 to 21.7 µM) in the experiment on A. baumannii CDC-0033; 2 to 4 µg/mL (≈ 2.71 to 5.43 µM) in the experiment with A. baumannii 1258916; over 64 µg/mL with N. gonorrhoeae WHO X (setting [3]); 8 to 16 µg/mL (≈ 10.9 to 21.7 µM) in the experiment on A. baumannii CDC-0083; 16 to 32 µg/mL (≈ 21.7 to 43.4 µM) in the experiment with N. gonorrhoeae WHO M (setting [4]). Further, the MIC in the experiment on A. baumannii ATCC 19606 lay in the range of 2 to 4 µg/mL (≈ 2.71 to 5.43 µM). In addition, the IC50 in experiment [1] is over 250 µM.
